# Measurements from US6503922B2, “Bridged nicotine compounds for use in the treatment of CNS pathologies” (priority 2000, dated 2003).
# Like-named read-outs stand apart in the source and are kept apart here.
# What was measured:
# [1] = molecular target: T1, α7-type neuronal nicotinic acetylcholine receptors (Rattus norvegicus, UniProt Q05941); assay: [3H]-MLA binding assay, rat brain membranes; details: for remaining activity at 10 µM: compound 10 μM, 2.5 nM [3H]-MLA, whole brain binding relative to control
# T1 construct: The brain tissue was homogenized with a Tekmar Polytron; from tissue; host or cells: male Sprague-Dawley rat brain membranes (whole brain without cortex, striatum and cerebellum)
# T1 sequence (Q05941 23-502): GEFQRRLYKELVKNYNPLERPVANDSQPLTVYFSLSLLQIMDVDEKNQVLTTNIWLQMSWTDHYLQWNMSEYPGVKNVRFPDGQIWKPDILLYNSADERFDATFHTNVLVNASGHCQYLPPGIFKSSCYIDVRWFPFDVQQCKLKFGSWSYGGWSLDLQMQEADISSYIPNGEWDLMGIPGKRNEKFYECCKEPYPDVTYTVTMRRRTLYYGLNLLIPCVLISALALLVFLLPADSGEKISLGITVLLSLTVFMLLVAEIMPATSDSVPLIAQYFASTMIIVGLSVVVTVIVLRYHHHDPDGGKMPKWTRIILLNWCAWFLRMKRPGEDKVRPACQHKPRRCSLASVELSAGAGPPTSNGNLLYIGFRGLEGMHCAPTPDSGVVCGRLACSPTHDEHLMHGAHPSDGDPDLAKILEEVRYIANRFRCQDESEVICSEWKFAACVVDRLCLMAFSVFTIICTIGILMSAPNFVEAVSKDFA
# [2] = molecular target: T2, α4β2-containing receptor subtype (Rattus norvegicus, UniProt P09483+P12390); assay: [3H]-NIC binding assay, rat striatal membranes; details: for Specific binding of [3H]-NIC in the presence of compound: 3 nM [3H]-NIC, mean ± S.E.M of 3 experiments
# T2 construct: Striata from two rats were dissected, pooled, and homogenized; from tissue; host or cells: rat striatal membranes
# T2 sequence (P09483 31-630): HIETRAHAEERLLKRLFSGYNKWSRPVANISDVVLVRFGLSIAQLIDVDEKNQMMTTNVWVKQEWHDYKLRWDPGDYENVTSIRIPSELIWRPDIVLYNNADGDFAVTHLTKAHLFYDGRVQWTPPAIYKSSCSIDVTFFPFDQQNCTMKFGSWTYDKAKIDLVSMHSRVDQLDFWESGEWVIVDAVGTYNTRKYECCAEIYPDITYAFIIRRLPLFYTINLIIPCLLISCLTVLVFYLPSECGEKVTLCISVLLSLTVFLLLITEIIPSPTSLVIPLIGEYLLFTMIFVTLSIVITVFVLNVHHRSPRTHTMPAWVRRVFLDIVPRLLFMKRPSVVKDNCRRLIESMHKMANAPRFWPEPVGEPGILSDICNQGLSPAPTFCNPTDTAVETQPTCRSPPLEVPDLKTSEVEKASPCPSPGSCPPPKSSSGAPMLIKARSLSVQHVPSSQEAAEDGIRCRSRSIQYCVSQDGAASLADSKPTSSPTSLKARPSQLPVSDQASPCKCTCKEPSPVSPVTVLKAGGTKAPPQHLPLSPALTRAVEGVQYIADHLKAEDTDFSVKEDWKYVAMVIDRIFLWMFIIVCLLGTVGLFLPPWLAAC
# T2 sequence (P12390 25-500): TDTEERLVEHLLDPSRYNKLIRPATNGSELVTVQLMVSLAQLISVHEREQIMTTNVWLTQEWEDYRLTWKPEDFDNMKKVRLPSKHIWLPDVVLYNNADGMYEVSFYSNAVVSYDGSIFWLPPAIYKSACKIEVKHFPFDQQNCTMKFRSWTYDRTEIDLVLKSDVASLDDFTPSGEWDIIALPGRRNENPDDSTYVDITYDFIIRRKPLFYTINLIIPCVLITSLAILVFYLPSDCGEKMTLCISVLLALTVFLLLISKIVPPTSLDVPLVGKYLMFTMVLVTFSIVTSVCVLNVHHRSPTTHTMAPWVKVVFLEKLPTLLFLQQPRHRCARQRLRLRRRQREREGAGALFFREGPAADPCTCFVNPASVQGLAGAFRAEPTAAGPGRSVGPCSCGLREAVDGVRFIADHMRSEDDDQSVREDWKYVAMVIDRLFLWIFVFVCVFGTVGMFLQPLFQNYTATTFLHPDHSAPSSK
# [3] = molecular target: T2, α4β2-containing receptor subtype; assay: [3H]-NIC binding assay, rat striatal membranes; details: compared with NONI, NDNI, DHβE
# Protocol: Striata from two rats were dissected, pooled, and homogenized with a Tekmar polytron in 10 vol of ice-cold modified Krebs-HEPES buffer (20 mM HEPES, 118 mM NaCl, 4.8 mM KCl, 2.5 mM CaCl2, 1.2 mM MgSO4, adjusted to pH 7.5). The homogenates were incubated at 37° C. for 5 minutes and centrifuged at 15,000 g for 20 minutes. The pellet was resuspended in 10 volumes of ice-cold MilliQ water, incubated for 5 minutes at 37° C., and centrifuged at 15,000 g for 20 minutes. The second pellet was then resuspended in 10 volumes of fresh ice-cold 10% Krebs-HEPES buffer, incubated at 37° C., and centrifuged at 15,000 g for 20 minutes. The latter sequence of resuspension, incubation, and centrifugation was repeated. The pellet was frozen under fresh 10% Krebs-HEPES buffer and stored at −40° C. until assayed. Upon assay, the pellet was resuspended in the Krebs-HEPES buffer, incubated at 37° C. for 5 minutes, and centrifuged at 15,000 g for 20 minutes. The final pellet was resuspended in 3.6 ml ice-cold MilliQ water which provided for approximately 200 μg protein per 100 μl aliquot. Competition assays were performed in triplicate in a final volume of 200 μl Krebs-HEPES buffer containing […] Tris buffer (pH 7.5 at 4° C.). Reactions were initiated by addition of 100 μl of membrane suspension to […] [^3H]-NIC (50 μl). and one of at least nine concentrations of analog (50 μl). After a 90 minutes incubation at […], reactions were terminated by dilution of the samples with 3 ml of ice-cold Krebs-HEPES buffer followed immediately by filtration through Whatman GF/B. glass fiber filters (presoaked in 0.5% polyethyleneimine) using a Brandel Cell Harvester. Filters were rinsed three times with. 3 ml of ice-cold Krebs-HEPES buffer, transferred to scintillation vials, and 5 ml scintillation cocktail (Research Products International Corp., Mt. Prospect, Ill.) added. Nonspecific binding determined in triplicate was defined as binding in the presence of 10 μM NIC. Binding parameters were determined using the weighted, least squares regression.
# The conformationally restricted nicotine analogs were evaluated for their ability to displace [^3H]-NIC binding from rat striatal membranes.
Compound,remaining activity at 10 µM [1] [%],Specific binding of [3H]-NIC in the presence of compound ([2]; compound 1 μM),Specific binding of [3H]-NIC in the presence of compound ([2]; compound 10 μM),Specific binding of [3H]-NIC in the presence of compound ([2]; compound 100 μM),Affinity for the [3H]-NIC binding site (in words) [3],Affinity for the [3H]-NIC binding site (in words) [2],Ki [1] [nM]
CCCCCCCCCC[n+]1cccc2c1CCC1CCN(C)C21 (stereo not shown) [BCD],96.2,54.9 ± 0.7 fmol/mg of protein,54.4 ± 1.1 fmol/mg of protein,47.9 ± 2.8 fmol/mg of protein,lost their ability to interact with this binding site,,
CCCCCCCC[n+]1cccc2c1CCC1CCN(C)C21 (stereo not shown) [BCO],93.6,50.5 ± 1.2 fmol/mg of protein,39.7 ± 1.4 fmol/mg of protein,13.5 ± 0.5 fmol/mg of protein,much lower affinity for the [^3H]-NIC binding site compared to NONI,,
"CCCCCCCCCC[n+]1cccc([C@@H]2CCCN2C)c1.[I-] [NDNI, reference compound]",,,,,,high affinity,
"CCCCCCCC[n+]1ccc2c(c1)[C@@H]1[C@H](CC2)CCN1C.[I-] (relative stereo) [ACO, cis-1-methyl-8-octyl-2,3,3a,4,5,9b-hexahydro-1H-pyrrolo[3,2-h]isoquinolin-8-ium iodide]",91.5,44.5 ± 0.4 fmol/mg of protein,42.2 ± 0.5 fmol/mg of protein,30.2 ± 6.9 fmol/mg of protein,much lower affinity for the [^3H]-NIC binding site compared to NONI,,
"CCCCCCCCCC[n+]1ccc2c(c1)[C@@H]1[C@H](CC2)CCN1C.[I-] (relative stereo) [ACD, cis-8-decyl-1-methyl-2,3,3a,4,5,9b-hexahydro-1H-pyrrolo[3,2-h]isoquinolin-8-ium iodide]",102,50.3 ± 3.7 fmol/mg of protein,52.1 ± 2.6 fmol/mg of protein,37.0 ± 1.7 fmol/mg of protein,lost their ability to interact with this binding site,,
"CCCCCCCCCCC[n+]1ccc2c(c1)[C@@H]1[C@H](CC2)CCN1C.[I-] (relative stereo) [ACU, cis-1-methyl-8-undecyl-2,3,3a,4,5,9b-hexahydro-1H-pyrrolo[3,2-h]isoquinolin-8-ium iodide]",100,51.3 ± 2.0 fmol/mg of protein,49.0 ± 0.3 fmol/mg of protein,42.7 ± 2.1 fmol/mg of protein,,,
"CCCCCCCCCCCC[n+]1ccc2c(c1)[C@@H]1[C@H](CC2)CCN1C.[I-] (relative stereo) [ACDD, cis-8-dodecyl-1-methyl-2,3,3a,4,5,9b-hexahydro-1H-pyrrolo[3,2-h]isoquinolin-8-ium iodide]",102,49.5 ± 0.7 fmol/mg of protein,49.8 ± 2.9 fmol/mg of protein,44.5 ± 1.7 fmol/mg of protein,,,
"CCCCCCCCC[n+]1ccc2c(c1)[C@@H]1[C@H](CC2)CCN1C.[I-] (relative stereo) [ACN, cis-1-methyl-8-nonyl-2,3,3a,4,5,9b-hexahydro-1H-pyrrolo[3,2-h]isoquinolin-8-ium iodide]",101,49.8 ± 3.6 fmol/mg of protein,48.9 ± 2.9 fmol/mg of protein,30.2 ± 2.2 fmol/mg of protein,,,
"CCCCCCCCCCCC[n+]1cccc2c1CCC1CCN(C)C21 (stereo not drawn) [BCDD, cis-6-dodecyl-1-methyl-2,3,3a,4,5,9b-hexahydro-1H-pyrrolo[2,3-f]isoquinolin-6-ium iodide]",94.2,43.7 ± 4.5 fmol/mg of protein,43.0 ± 4.7 fmol/mg of protein,34.0 ± 2.1 fmol/mg of protein,,,
CCCCCCCCCCC[n+]1cccc2c1CCC1CCN(C)C21 (stereo not shown) [BCU],92.3,56.1 ± 0.6 fmol/mg of protein,53.9 ± 1.2 fmol/mg of protein,37.3 ± 1.8 fmol/mg of protein,,,
"CCCCCCCCC[n+]1cccc2c1CCC1CCN(C)C21 (stereo not drawn) [BCN, cis-1-methyl-6-nonyl-2,3,3a,4,5,9b-hexahydro-1H-pyrrolo[2,3-f]isoquinolin-6-ium iodide]",94,49.6 ± 1.2 fmol/mg of protein,47.7 ± 2.1 fmol/mg of protein,36.2 ± 0.3 fmol/mg of protein,,,
α-Bungarotoxin [reference compound],,,,,,,28.6 ± 5.4
